In article PMC3004914, “Classification of Drugs Based on Properties of Sodium Channel Inhibition: A Comparative Automated Patch-Clamp Study” (PLoS ONE, 2010):
pKd, pKi: −log10 of the molar value. Values joined by “and” are separate entries in the source; they are usually repeats but may differ in a detail not shown here. Equal values may be shown once. Read-outs that look alike come from different tables or passages of the source.

What was measured:
[1] = target: T1, rNav1.2 sodium channels (HEK-293 cells) (Rattus norvegicus, UniProt P04775); assay: 5 Hz train protocol, QPatch automated patch-clamp; format: cell-based; conditions: for UD (use-dependence of the inhibition) / inhibition at 300 µM / potency estimated from few doses / use-dependence (UD) / inhibition at 30 µM / inhibition at 100 µM: 5 Hz train; for inhibition at 300 µM / potency estimated from few doses / inhibition at 30 µM / inhibition at 100 µM: HEK293; for inhibition at 300 µM / inhibition at 30 µM / inhibition at 100 µM: −90 mV holding potential, read-out: Inh (inhibited fraction); for potency estimated from few doses: −90 mV, read-out: IC50; for potency: in words;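 for UD (use-dependence of the inhibition): UD = (A3/A4)/(A1/A2) as ratios of peak amplitudes from Figure 1A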
Procedure, shortened: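 rNav1.2 in stable HEK-293 cells, QPatch whole-cell; 5 Hz trains of five pulses from −90 to −10 mV, repeated every 20 s; 10 control trains, 10 with drug, then washout. Inhibition of peak current at a single concentration gave IC50; reversibility, use-dependence and τoff also derived.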

[2] = target: T1, rNav1.2 sodium channels (HEK-293 cells); assay: steady-state inactivation protocol (availability curves), QPatch automated patch-clamp; format: cell-based
Procedure, shortened: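 HEK-293 cells stably expressing rat Nav1.2, recorded by automated patch clamp in extracellular solution pH 7.3 containing CdCl2 and TEA. Availability measured with 400 ms pre-pulses from −150 to −30 mV, then a 10 ms test pulse to −10 mV. Kr, Ki (four-state model) and Kr/Ki state-dependence derived from inhibition and ΔV1/2.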

[3] = target: sodium channels; conditions: averaged literature data, cited from earlier work; for pKi: read-out: Ki−Lit; for pKd: read-out: Kr−Lit
[4] = human plasma, cited from earlier work
[5] = 300 μM, 3 s assigned where too short to be resolved
[6] = 300 μM, Rev = A5/A1 after washout
[7] = calculated from Inh at single concentration 300 μM
[8] = HEK293, 300 µM, read-out: Inh (inhibited fraction) at holding potential −150 mV
[9] = arithmetic mean, 300 µM, read-out: Ki-Kapp arith
[10] = arithmetic mean, 300 µM, read-out: Ki-ΔV1/2 arith
[11] = arithmetic mean, 300 µM, read-out: Kr arith
[12] = geometric mean, from Inh at −150 mV, 300 µM, read-out: Kr (resting state affinity)
[13] = geometric mean, from apparent affinity, 300 µM, read-out: Ki−Kapp (inactivated state affinity)
[14] = geometric mean, from shift of availability curve, 300 µM, read-out: Ki−ΔV1/2 (inactivated state affinity)
[15] = 30 μM, 500 s assigned where irreversible
[16] = 30 μM, Rev = A5/A1 after washout
[17] = calculated from Inh at single concentration 30 μM
[18] = 100 μM, 500 s assigned where irreversible
[19] = 100 μM, Rev = A5/A1 after washout
[20] = calculated from Inh at single concentration 100 μM
[21] = HEK293, 100 µM, read-out: Inh (inhibited fraction) at holding potential −150 mV
[22] = HEK293, 30 µM, read-out: Inh (inhibited fraction) at holding potential −150 mV

T1 sequence (P04775 whole entry): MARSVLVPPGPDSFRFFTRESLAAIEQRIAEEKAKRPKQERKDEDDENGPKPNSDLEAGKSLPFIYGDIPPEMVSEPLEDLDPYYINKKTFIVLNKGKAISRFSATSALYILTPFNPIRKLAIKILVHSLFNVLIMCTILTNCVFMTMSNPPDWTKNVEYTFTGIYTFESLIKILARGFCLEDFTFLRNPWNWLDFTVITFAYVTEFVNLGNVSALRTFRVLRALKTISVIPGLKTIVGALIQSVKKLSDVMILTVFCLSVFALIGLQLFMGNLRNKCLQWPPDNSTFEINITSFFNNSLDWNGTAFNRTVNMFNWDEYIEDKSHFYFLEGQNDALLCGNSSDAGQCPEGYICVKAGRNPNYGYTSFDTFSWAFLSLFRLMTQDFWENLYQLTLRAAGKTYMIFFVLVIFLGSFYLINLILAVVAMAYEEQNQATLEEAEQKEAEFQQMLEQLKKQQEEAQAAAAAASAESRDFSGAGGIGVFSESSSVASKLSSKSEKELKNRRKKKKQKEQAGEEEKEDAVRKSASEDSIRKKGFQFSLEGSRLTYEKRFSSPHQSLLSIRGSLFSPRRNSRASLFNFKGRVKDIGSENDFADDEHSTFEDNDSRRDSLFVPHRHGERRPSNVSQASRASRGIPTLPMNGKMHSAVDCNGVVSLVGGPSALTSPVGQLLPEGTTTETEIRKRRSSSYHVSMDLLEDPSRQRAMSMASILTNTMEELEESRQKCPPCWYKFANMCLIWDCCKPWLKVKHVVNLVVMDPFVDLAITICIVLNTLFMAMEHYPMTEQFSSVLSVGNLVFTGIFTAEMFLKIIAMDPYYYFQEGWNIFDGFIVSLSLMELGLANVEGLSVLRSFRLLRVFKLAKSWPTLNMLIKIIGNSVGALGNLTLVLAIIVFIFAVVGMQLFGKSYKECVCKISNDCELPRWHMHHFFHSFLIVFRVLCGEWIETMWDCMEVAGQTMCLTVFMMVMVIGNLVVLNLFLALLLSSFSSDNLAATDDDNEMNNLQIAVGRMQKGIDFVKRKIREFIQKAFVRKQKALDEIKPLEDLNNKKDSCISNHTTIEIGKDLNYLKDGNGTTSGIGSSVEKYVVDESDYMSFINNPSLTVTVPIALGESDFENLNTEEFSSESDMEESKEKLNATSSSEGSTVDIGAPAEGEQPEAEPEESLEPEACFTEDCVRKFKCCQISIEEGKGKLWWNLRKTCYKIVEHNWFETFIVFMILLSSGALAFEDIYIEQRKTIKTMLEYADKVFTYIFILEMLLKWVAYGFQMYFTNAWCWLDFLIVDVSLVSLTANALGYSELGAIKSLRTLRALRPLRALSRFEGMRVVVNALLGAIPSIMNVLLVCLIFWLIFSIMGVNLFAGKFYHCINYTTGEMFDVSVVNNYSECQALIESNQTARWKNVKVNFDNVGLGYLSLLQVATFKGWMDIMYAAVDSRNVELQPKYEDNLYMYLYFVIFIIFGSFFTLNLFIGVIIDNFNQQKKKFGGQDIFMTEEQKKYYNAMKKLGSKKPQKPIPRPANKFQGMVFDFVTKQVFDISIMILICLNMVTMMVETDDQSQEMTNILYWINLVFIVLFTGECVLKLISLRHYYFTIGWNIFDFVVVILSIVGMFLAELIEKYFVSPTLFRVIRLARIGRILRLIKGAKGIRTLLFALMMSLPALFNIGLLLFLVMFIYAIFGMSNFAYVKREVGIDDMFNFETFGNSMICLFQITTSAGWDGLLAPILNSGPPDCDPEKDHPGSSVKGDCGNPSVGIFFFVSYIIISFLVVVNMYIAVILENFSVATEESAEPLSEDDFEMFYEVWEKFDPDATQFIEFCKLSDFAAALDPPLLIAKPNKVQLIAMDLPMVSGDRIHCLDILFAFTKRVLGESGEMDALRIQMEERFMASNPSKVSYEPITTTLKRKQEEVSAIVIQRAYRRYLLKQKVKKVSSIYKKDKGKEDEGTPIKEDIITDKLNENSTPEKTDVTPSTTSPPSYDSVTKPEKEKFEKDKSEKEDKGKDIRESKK

## O=C1NC(=O)C(c2ccccc2)(c2ccccc2)N1 [DPH, 5,5-diphenyl-hydantoin]
[1]; 300 μM
  τoff: 15.96 s
  UD (use-dependence of the inhibition): 1.01
  inhibition at 300 µM: 18%
[1]; [5]
  τon: 5.20 s
[1]; [6]
  Rev (reversibility): 0.75
[1]; [7]
  potency estimated from few doses: 1390 µM
[1]
  potency: among the least potent SCIs
[2]; 300 μM
  ΔV1/2 (shift of availability curve): −4.93 mV
[2]; [8]
  inhibition at 300 µM: 12%
[2]; [9]
  pKi: 4.11
[2]; [10]
  pKi: 3.76
[2]; [11]
  pKd: 2.53
[2]; [12]
  pKd: 2.60
[2]; [13]
  pKi: 4.15
[2]; [14]
  pKi: 3.83
[3]
  pKi: 4.79
  pKd: 3.15
[4]; as printed in each cell
  plasma conc.: 10 [44] µg/ml
[4]; as printed in the µg/ml cell
  plasma conc.: 39.64 µM

## Cc1ccc(-c2nc(C)c(CN3CCN(C(c4ccccc4)c4ccccc4)CC3)[nH]2)cc1 [LIF, Lifarizine]
[1]
  onset and offset kinetics (time constants): very slow kinetics
  use-dependence (UD): no use-dependence
  potency: high potency
[1]; 30 μM
  τon: 96.5 s
  UD (use-dependence of the inhibition): 1.02
  inhibition at 30 µM: 78%
[1]; [15]
  τoff: 500 s
[1]; [16]
  Rev (reversibility): 0.01
[1]; 200 s of washout
  reversibility: apparent irreversibility
[1]; [17]
  potency estimated from few doses: 5.29 µM
[2]; 1 µM
  ΔV1/2 (shift of availability curve): −4.39 mV
[2]; HEK293, 1 µM, read-out: Inh (inhibited fraction) at holding potential −150 mV
  inhibition at 1 µM: 2%
[2]; arithmetic mean, 1 µM, read-out: Ki-Kapp arith
  pKi: 6.28
[2]; arithmetic mean, 1 µM, read-out: Ki-ΔV1/2 arith
  pKi: 6.02
[2]; arithmetic mean, 1 µM, read-out: Kr arith
  pKd: 4.20
[2]; geometric mean, from Inh at −150 mV, 1 µM, read-out: Kr (resting state affinity)
  pKd: 4.25
[2]; geometric mean, from apparent affinity, 1 µM, read-out: Ki−Kapp (inactivated state affinity)
  pKi: 6.30
[2]; geometric mean, from shift of availability curve, 1 µM, read-out: Ki−ΔV1/2 (inactivated state affinity)
  pKi: 6.04
[3]
  pKi: 6.72
  pKd: 4.99
[4]; as printed in each cell
  plasma conc.: 0.02 [59] µg/ml
[4]; as printed in the µg/ml cell
  plasma conc.: 0.046 µM

## CC12CC3CC(C)(C1)CC(N)(C3)C2 [MEM, Memantine]
[1]; 100 μM
  τon: 3.51 s
  UD (use-dependence of the inhibition): 0.99
  inhibition at 100 µM: 32%
[1]; [18]
  τoff: 8.98 s
[1]; [19]
  Rev (reversibility): 0.93
[1]; [20]
  potency estimated from few doses: 230 µM
[2]; 100 μM
  ΔV1/2 (shift of availability curve): −1.77 mV
[2]; [21]
  inhibition at 100 µM: 29%
[2]; arithmetic mean, 100 µM, read-out: Ki-Kapp arith
  pKi: 4.49
[2]; arithmetic mean, 100 µM, read-out: Ki-ΔV1/2 arith
  pKi: 3.92
[2]; arithmetic mean, 100 µM, read-out: Kr arith
  pKd: 3.61
[2]; geometric mean, from Inh at −150 mV, 100 µM, read-out: Kr (resting state affinity)
  pKd: 3.62
[2]; geometric mean, from apparent affinity, 100 µM, read-out: Ki−Kapp (inactivated state affinity)
  pKi: 4.54 and 4.55
[2]; geometric mean, from shift of availability curve, 100 µM, read-out: Ki−ΔV1/2 (inactivated state affinity)
  pKi: 3.96
[3]
  pKi: 5.18
  pKd: 3.75
[4]; as printed in each cell
  plasma conc.: 0.02 [53] µg/ml
[4]; as printed in the µg/ml cell
  plasma conc.: 0.075 µM

## Cc1cccc(C)c1OCC(C)N (stereo not drawn) [MEX, Mexiletine]
[1]; 300 μM
  τoff: 12.93 s
  UD (use-dependence of the inhibition): 1.39
  inhibition at 300 µM: 57%
[1]; [5]
  τon: 8.6 s
[1]; [6]
  Rev (reversibility): 0.78
[1]; [7]
  potency estimated from few doses: 231 µM
[2]; 300 μM
  ΔV1/2 (shift of availability curve): −10.3 mV
[2]; [8]
  inhibition at 300 µM: 32%
[2]; Ki-ΔV1/2 arith, arithmetic mean, 300 µM
  pKi: 4.43
[2]; Ki−ΔV1/2 (inactivated state affinity), geometric mean, from shift of availability curve, 300 µM
  pKi: 4.57
[2]; [9]
  pKi: 4.72
[2]; [11]
  pKd: 3.18
[2]; [12]
  pKd: 3.20
[2]; [13]
  pKi: 4.75
[3]
  pKi: 4.91
  pKd: 3.40
[4]; as printed in each cell
  plasma conc.: 2 [44] µg/ml
[4]; as printed in the µg/ml cell
  plasma conc.: 9.271 µM

## Fc1ccc([C@@H]2CCNC[C@H]2COc2ccc3c(c2)OCO3)cc1 [PRX, Paroxetine]
[1]; 30 μM
  τon: 32.07 s
  UD (use-dependence of the inhibition): 1.46
  inhibition at 30 µM: 65%
[1]; [15]
  τoff: 35.99 s
[1]; [16]
  Rev (reversibility): 0.34
[1]; [17]
  potency estimated from few doses: 16.2 µM
[2]; 30 μM
  ΔV1/2 (shift of availability curve): −11.4 mV
[2]; [22]
  inhibition at 30 µM: 55%
[2]; arithmetic mean, 30 µM, read-out: Ki-Kapp arith
  pKi: 5.79
[2]; arithmetic mean, 30 µM, read-out: Ki-ΔV1/2 arith
  pKi: 5.05
[2]; arithmetic mean, 30 µM, read-out: Kr arith
  pKd: 4.49
[2]; geometric mean, from Inh at −150 mV, 30 µM, read-out: Kr (resting state affinity)
  pKd: 4.62
[2]; geometric mean, from apparent affinity, 30 µM, read-out: Ki−Kapp (inactivated state affinity)
  pKi: 6.14
[2]; geometric mean, from shift of availability curve, 30 µM, read-out: Ki−ΔV1/2 (inactivated state affinity)
  pKi: 5.70
[3]
  pKi: 5.84
  pKd: 4.77
[4]; as printed in each cell
  plasma conc.: 0.38 [44] µg/ml

## COc1ccccc1OCC(O)CN1CCN(CC(=O)Nc2c(C)cccc2C)CC1 (stereo not drawn) [RAN, Ranolazine]
[1]; 100 μM
  τon: 8.13 s
  UD (use-dependence of the inhibition): 1.21
  inhibition at 100 µM: 16%
[1]; [18]
  τoff: 13.24 s
[1]; [19]
  Rev (reversibility): 0.89
[1]; [20]
  potency estimated from few doses: 355 µM
[1]; from IC50 (5 Hz train) and Kr, Ki (steady-state inactivation)
  (IC50/Ki) / (Kr/Ki) ratio: 0.94
[2]; 300 μM
  ΔV1/2 (shift of availability curve): −5.52 mV
[2]; [8]
  inhibition at 300 µM: 42%
[2]; [9]
  pKi: 4.71
[2]; [10]
  pKi: 4.11
[2]; [11]
  pKd: 3.23
[2]; [12]
  pKd: 3.36
[2]; [13]
  pKi: 4.97
[2]; [14]
  pKi: 4.18
[3]
  pKi: 4.12
  pKd: 3.00
[4]; as printed in each cell
  plasma conc.: 3.59 [52] µg/ml
[4]; as printed in the µg/ml cell
  plasma conc.: 7.173 µM

## Nc1nc2ccc(OC(F)(F)F)cc2s1 [RIL, Riluzole]
[1]
  Rev (reversibility): 0.52
  use-dependence (UD): no use-dependence
[1]; 30 μM
  τon: 3.9 s
  UD (use-dependence of the inhibition): 0.95
  inhibition at 30 µM: 27%
[1]; [15]
  τoff: 17.6 s
[1]; [17]
  potency estimated from few doses: 81 µM
[2]; [22]
  inhibition at 30 µM: 8%
[2]; [21]
  inhibition at 100 µM: 22%
[3]
  pKi: 6.31
  pKd: 4.20
[4]; as printed in each cell
  plasma conc.: 0.17 [44] µg/ml
[4]; as printed in the µg/ml cell
  plasma conc.: 0.739 µM
